Source: the supplement of paper PMC10307832

What was measured:
Assay in all cases: relative viability (nuclei count vs DMSO), 5 days (fraction); higher = more cells survive
[1] = system: A-427
Outline: (§1)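 Nuclei were stained with Hoechst during a one-step fixation (final 0.05% Triton X-100, 1% formaldehyde, 1 ug/ml Hoechst) carried out 5 days after dosing, then counted on 4× images. The cells, lung cancer lines in 1536-well plates, had been dosed by pin tool the day after seeding with one drug alone or a fixed anchor-drug dose plus five library-drug doses (not always all listed) in √10 steps. Relative viability is the nuclei count in treated wells divided by that in vehicle wells, and each value is the median of duplicate plates.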

[2] = system: CAL-12T
Outline: as §1

[3] = system: COR-L 105
Outline: as §1

[4] = system: EMC-BAC-2
Outline: as §1

[5] = system: HARA
Outline: as §1

[6] = system: HCC-366
Outline: as §1

[7] = system: HCC-827
Outline: as §1

[8] = system: HOP-62
Outline: as §1

[9] = system: LCLC-103H
Outline: as §1

[10] = system: NCI-H1437
Outline: as §1

[11] = system: NCI-H1755
Outline: as §1

[12] = system: NCI-H1792
Outline: as §1

[13] = system: NCI-H1915
Outline: as §1

[14] = system: NCI-H2009
Outline: as §1

[15] = system: NCI-H2228
Outline: as §1

[16] = system: NCI-H23
Outline: as §1

[17] = system: NCI-H460
Outline: as §1

[18] = system: NCI-H727
Outline: as §1

[19] = system: SK-LU-1
Outline: as §1

[20] = system: SW 1573
Outline: as §1

Nc1ccn([C@@H]2O[C@H](CO)[C@@H](O)[C@@H]2O)c(=O)n1 [Cytarabine] + CC(C)C[C@H](NC(=O)[C@H](Cc1ccccc1)NC(=O)c1cnccn1)B(O)O [Bortezomib] (partner 0.002 µM)
relative viability ([1]; first compound 0.005 µM): 0.752 | relative viability ([1]; first compound 0.01581 µM): 0.46 | relative viability ([1]; first compound 0.05 µM): 0.276 | relative viability ([1]; first compound 0.1581 µM): 0.171 | relative viability ([1]; first compound 0.5 µM): 0.166 | relative viability ([2]; first compound 0.005 µM): 0.933 | relative viability ([2]; first compound 0.01581 µM): 0.715 | relative viability ([2]; first compound 0.05 µM): 0.948 | relative viability ([2]; first compound 0.1581 µM): 0.379 | relative viability ([2]; first compound 0.5 µM): 0.267 | relative viability ([3]; first compound 0.005 µM): 0.676 | relative viability ([3]; first compound 0.01581 µM): 0.699 | relative viability ([3]; first compound 0.05 µM): 0.464 | relative viability ([3]; first compound 0.1581 µM): 0.399 | relative viability ([3]; first compound 0.5 µM): 0.285 | relative viability ([4]; first compound 0.005 µM): 1.03 | relative viability ([4]; first compound 0.01581 µM): 1.09 | relative viability ([4]; first compound 0.05 µM): 0.807 | relative viability ([4]; first compound 0.1581 µM): 0.254 | relative viability ([4]; first compound 0.5 µM): 0.229 | relative viability ([5]; first compound 0.005 µM): 0.725 | relative viability ([5]; first compound 0.01581 µM): 0.642 | relative viability ([5]; first compound 0.05 µM): 0.652 | relative viability ([5]; first compound 0.1581 µM): 0.179 | relative viability ([5]; first compound 0.5 µM): 0.139 | relative viability ([6]; first compound 0.005 µM): 1.16 | relative viability ([6]; first compound 0.01581 µM): 0.911 | relative viability ([6]; first compound 0.05 µM): 0.479 | relative viability ([6]; first compound 0.1581 µM): 0.0971 | relative viability ([6]; first compound 0.5 µM): 0.036 | relative viability ([7]; first compound 0.005 µM): 0.996 | relative viability ([7]; first compound 0.01581 µM): 0.674 | relative viability ([7]; first compound 0.05 µM): 0.474 | relative viability ([7]; first compound 0.1581 µM): 0.459 | relative viability ([7]; first compound 0.5 µM): 0.329 | relative viability ([8]; first compound 0.005 µM): 0.58 | relative viability ([8]; first compound 0.01581 µM): 0.291 | relative viability ([8]; first compound 0.05 µM): 0.208 | relative viability ([8]; first compound 0.1581 µM): 0.174 | relative viability ([8]; first compound 0.5 µM): 0.0493 | relative viability ([9]; first compound 0.005 µM): 0.977 | relative viability ([9]; first compound 0.01581 µM): 1.17 | relative viability ([9]; first compound 0.05 µM): 0.958 | relative viability ([9]; first compound 0.1581 µM): 1.04 | relative viability ([9]; first compound 0.5 µM): 0.966 | relative viability ([10]; first compound 0.005 µM): 0.334 | relative viability ([10]; first compound 0.01581 µM): 0.287 | relative viability ([10]; first compound 0.05 µM): 0.243 | relative viability ([10]; first compound 0.1581 µM): 0.18 | relative viability ([10]; first compound 0.5 µM): 0.16 | relative viability ([11]; first compound 0.005 µM): 0.922 | relative viability ([11]; first compound 0.01581 µM): 0.88 | relative viability ([11]; first compound 0.05 µM): 0.663 | relative viability ([11]; first compound 0.1581 µM): 0.282 | relative viability ([11]; first compound 0.5 µM): 0.294 | relative viability ([12]; first compound 0.005 µM): 0.925 | relative viability ([12]; first compound 0.01581 µM): 0.93 | relative viability ([12]; first compound 0.05 µM): 0.795 | relative viability ([12]; first compound 0.1581 µM): 0.565 | relative viability ([12]; first compound 0.5 µM): 0.55 | relative viability ([13]; first compound 0.005 µM): 0.74 | relative viability ([13]; first compound 0.01581 µM): 0.952 | relative viability ([13]; first compound 0.05 µM): 0.8 | relative viability ([13]; first compound 0.1581 µM): 0.385 | relative viability ([13]; first compound 0.5 µM): 0.25 | relative viability ([14]; first compound 0.005 µM): 1.05 | relative viability ([14]; first compound 0.01581 µM): 1.03 | relative viability ([14]; first compound 0.05 µM): 0.952 | relative viability ([14]; first compound 0.1581 µM): 0.634 | relative viability ([14]; first compound 0.5 µM): 0.311 | relative viability ([15]; first compound 0.005 µM): 0.791 | relative viability ([15]; first compound 0.01581 µM): 0.441 | relative viability ([15]; first compound 0.05 µM): 0.437 | relative viability ([15]; first compound 0.1581 µM): 0.197 | relative viability ([15]; first compound 0.5 µM): 0.156 | relative viability ([16]; first compound 0.005 µM): 0.743 | relative viability ([16]; first compound 0.01581 µM): 0.656 | relative viability ([16]; first compound 0.05 µM): 0.559 | relative viability ([16]; first compound 0.1581 µM): 0.24 | relative viability ([16]; first compound 0.5 µM): 0.214 | relative viability ([17]; first compound 0.005 µM): 0.677 | relative viability ([17]; first compound 0.01581 µM): 0.968 | relative viability ([17]; first compound 0.05 µM): 0.265 | relative viability ([17]; first compound 0.1581 µM): 0.028 | relative viability ([17]; first compound 0.5 µM): 0.0192 | relative viability ([18]; first compound 0.005 µM): 0.524 | relative viability ([18]; first compound 0.01581 µM): 0.558 | relative viability ([18]; first compound 0.05 µM): 0.484 | relative viability ([18]; first compound 0.1581 µM): 0.334 | relative viability ([18]; first compound 0.5 µM): 0.315 | relative viability ([19]; first compound 0.005 µM): 0.818 | relative viability ([19]; first compound 0.01581 µM): 0.69 | relative viability ([19]; first compound 0.05 µM): 0.558 | relative viability ([19]; first compound 0.1581 µM): 0.393 | relative viability ([19]; first compound 0.5 µM): 0.296 | relative viability ([20]; first compound 0.005 µM): 1.1 | relative viability ([20]; first compound 0.01581 µM): 0.847 | relative viability ([20]; first compound 0.05 µM): 0.675 | relative viability ([20]; first compound 0.1581 µM): 0.461 | relative viability ([20]; first compound 0.5 µM): 0.159
